Test results: US10654837B2, “Sulphamoylaryl derivatives and use thereof as medicaments for the treatment of liver fibrosis” (Janssen Pharmaceutica NV, priority 2017, dated 2020)

Each molecule was assayed against T1, 5HTR2B (Homo sapiens, UniProt P41595) (assay: 5HTR2B antagonist activity, calcium mobilization assay in human Maverick/293 cells (serotonin as agonist)). Details: intracellular calcium, emission 525 nm, read-out: Ca assay IC50.
T1 construct: host or cells: human Maverick/293 cells
Type: cell-based
In short: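 Calcium mobilization read over 80 s at ex 485/em 525 nm after serotonin addition. Before that, 2 h serum-free starvation, 50 min dye loading at 37 °C, and 15-30 min antagonist exposure. IC50 from sigmoidal fit of peak % inhibition.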

T1 sequence (P41595 whole entry): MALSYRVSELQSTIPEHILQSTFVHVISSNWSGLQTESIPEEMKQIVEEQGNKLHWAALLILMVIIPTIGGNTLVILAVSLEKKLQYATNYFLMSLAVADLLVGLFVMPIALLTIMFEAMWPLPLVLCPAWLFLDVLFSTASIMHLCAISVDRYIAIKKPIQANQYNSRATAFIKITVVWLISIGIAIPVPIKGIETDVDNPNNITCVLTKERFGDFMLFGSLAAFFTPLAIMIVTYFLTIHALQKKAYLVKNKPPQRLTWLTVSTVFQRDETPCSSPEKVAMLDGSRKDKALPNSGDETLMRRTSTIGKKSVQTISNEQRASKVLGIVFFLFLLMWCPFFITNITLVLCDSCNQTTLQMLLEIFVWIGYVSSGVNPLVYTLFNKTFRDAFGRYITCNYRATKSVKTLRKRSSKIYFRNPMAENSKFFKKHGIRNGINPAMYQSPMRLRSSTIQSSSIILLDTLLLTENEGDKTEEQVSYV

Structure (SMILES) | IC50 [nM]
COc1ccc(S(=O)(=O)N[C@H]2CCOC2)cc1C(=O)Nc1cc(Cl)c(F)cc1F [Compound 75, (S)—N-(5-Chloro-2,4-difluorophenyl)-2-methoxy-5-(N-(tetrahydrofuran-3-yl)sulfamoyl)benzamide] | 9.1
COc1ccc(S(=O)(=O)NC2COC2)cc1C(=O)Nc1ccc(F)c(C)c1 [Compound 5, N-(4-Fluoro-3-methylphenyl)-2-methoxy-5-(N-(oxetan-3-yl)sulfamoyl) benzamide] | 4.2
COc1ccc(S(=O)(=O)N[C@H]2CCNC2)cc1C(=O)Nc1ccccc1Cl [Compound 179, (S)—N-(2-Chlorophenyl)-2-methoxy-5-(N-(pyrrolidin-3-yl)sulfamoyl)benzamide] | 0.1
COc1ccc(S(=O)(=O)N[C@H]2CCOC2)cc1C(=O)Nc1ncccc1Cl [Compound 121, (S)—N-(3-Chloropyridin-2-yl)-2-methoxy-5-(N-(tetrahydrofuran-3-yl)sulfamoyl) benzamide] | 3.8
COc1ccc(S(=O)(=O)N[C@H]2CCOC2)cc1C(=O)Nc1ccc(F)c(F)c1F [Compound 88, (S)-2-Methoxy-5-(N-(tetrahydrofuran-3-yl)sulfamoyl)-N-(2,3,4-trifluorophenyl) benzamide] | 28
COc1ccc(S(=O)(=O)N[C@H]2CCOC2)cc1C(=O)Nc1cccc(F)c1OC [Compound 134, (S)—N-(3-fluoro-2-methoxyphenyl)-2-methoxy-5-(N-(tetrahydrofuran-3-yl)sulfamoyl)benzamide] | 0.5
COc1ccc(S(=O)(=O)NC2(C)COC2)cc1C(=O)Nc1ccc(F)cc1 [Compound 42, N-(4-Fluorophenyl)-2-methoxy-5-(N-(3-methyloxetan-3-yl)sulfamoyl)benzamide] | 2.2
COc1ccc(S(=O)(=O)N[C@H]2CCOC2)cc1C(=O)Nc1nc(C)c(F)c(Cl)n1 [Compound 171, (S)—N-(4-chloro-5-fluoro-6-methylpyrimidin-2-yl)-2-methoxy-5-(N-(tetrahydrofuran-3-yl)sulfamoyl)benzamide] | 106
COc1ccc(S(=O)(=O)N[C@H]2CCCOC2)cc1C(=O)Nc1ccc(F)c(C(F)F)c1 [Compound 37, (S)—N-(3-(Difluoromethyl)-4-fluorophenyl)-2-methoxy-5-(N-(tetrahydro-2H-pyran-3-yl)sulfamoyl)benzamide] | 0.8
COc1ccc(S(=O)(=O)NC2CCC2)cc1C(=O)Nc1ccc(F)cc1 [Compound 47, 5-(N-Cyclobutylsulfamoyl)-N-(4-fluorophenyl)-2-methoxybenzamide] | 0.5
COc1ccc(S(=O)(=O)N[C@H]2CCOC2)cc1C(=O)Nc1ccc(Cl)c(F)c1 [Compound 115, (S)—N-(4-Chloro-3-fluorophenyl)-2-methoxy-5-(N-(tetrahydrofuran-3-yl)sulfamoyl)benzamide] | 0.8
COc1ccc(S(=O)(=O)N[C@H]2CCOC2)cc1C(=O)Nc1ccc(F)cc1Cl [Compound 66, (S)—N-(2-Chloro-4-fluorophenyl)-2-methoxy-5-(N-(tetrahydrofuran-3-yl)sulfamoyl)benzamide] | 0.2
COc1ccc(S(=O)(=O)N[C@H]2CCOC2)cc1C(=O)Nc1ccc(Cl)c(Cl)c1 [Compound 72, (S)—N-(3,4-Dichlorophenyl)-2-methoxy-5-(N-(tetrahydrofuran-3-yl)sulfamoyl) benzamide] | 5.1
COc1ccc(S(=O)(=O)N[C@H]2CCOC2)cc1C(=O)Nc1ncc(Cl)cc1F [Compound 120, (S)—N-(5-Chloro-3-fluoropyridin-2-yl)-2-methoxy-5-(N-(tetrahydrofuran-3-yl)sulfamoyl)benzamide] | 50
COc1ccc(S(=O)(=O)N[C@H]2CCOC2)cc1C(=O)Nc1ccc(Cl)cc1 [Compound 108, (S)—N-(4-Chlorophenyl)-2-methoxy-5-(N-(tetrahydrofuran-3-yl)sulfamoyl) benzamide] | 5.5
COc1ccc(S(=O)(=O)N[C@H]2CCOC2)cc1C(=O)Nc1ccncn1 [Compound 165, (S)-2-Methoxy-N-(pyrimidin-4-yl)-5-(N-(tetrahydrofuran-3-yl)sulfamoyl) benzamide] | 511

Now from value to molecule:

IC50 [nM] | Structure (SMILES)
0.8 | COc1ccc(S(=O)(=O)N[C@H]2C[C@H](O)C2)cc1C(=O)Nc1cc(F)ccc1Cl [Compound 146a, N-(2-chloro-5-fluorophenyl)-5-(N-((trans)-3-hydroxycyclobutyl)sulfamoyl)-2-methoxybenzamide]
8.5 | COCC(C)NS(=O)(=O)c1ccc(OC)c(C(=O)Nc2ccc(F)c(C(F)F)c2)c1 (single isomer, unassigned) [Compound 32b, (S*)—N-(3-(Difluoromethyl)-4-fluorophenyl)-2-methoxy-5-(N-(1-methoxypropan-2-yl)sulfamoyl)benzamide]
0.2 | COc1ccc(S(=O)(=O)NC2CC[C@@H](O)C2)cc1C(=O)Nc1ccccc1Cl (stereo partly drawn) [Compound 57b, N-(2-Chlorophenyl)-5-(N-((cis)-3-hydroxycyclopentyl)sulfamoyl)-2-methoxy benzamide]
4.7 | COc1ccc(S(=O)(=O)NCC(O)C(F)(F)F)cc1C(=O)Nc1ccc(F)c(C)n1 (single isomer, unassigned) [Compound 23a, (R*)—N-(5-fluoro-6-methylpyridin-2-yl)-2-methoxy-5-(N-(3,3,3-trifluoro-2-hydroxypropyl)sulfamoyl)benzamide]
1.9 | COc1ccc(S(=O)(=O)NC2CC[C@H](O)C2)cc1C(=O)Nc1ccc(F)cc1 (stereo partly shown) [Compound 45b]
50 | COc1ccc(N(C)S(=O)(=O)C2CCOC2)cc1C(=O)Nc1ccc(F)c(C)c1 (single isomer, unassigned) [Compound 204a, (R*)—N-(4-Fluoro-3-methylphenyl)-2-methoxy-5-(N-methyltetrahydrofuran-3-sulfonamido)benzamide]
56 | COc1ccc(N(C)S(=O)(=O)C2CCOC2)cc1C(=O)Nc1ccc(F)c(C)c1 (single isomer, unassigned) [Compound 204b, (S*)—N-(4-Fluoro-3-methylphenyl)-2-methoxy-5-(N-methyltetrahydrofuran-3-sulfonamido)benzamide]
1.1 | COc1ccc(S(=O)(=O)N[C@H]2C[C@@H](O)C2)cc1C(=O)Nc1ccc(F)c(C(F)F)c1 [Compound 142b, N-(3-(difluoromethyl)-4-fluorophenyl)-5-(N-((cis)-3-hydroxycyclobutyl)sulfamoyl)-2-methoxybenzamide]
329 | COc1ccc(S(=O)(=O)N[C@H]2C[C@@H](O)C2)cc1C(=O)Nc1c(C)cccc1Cl [Compound 138b, N-(2-Chloro-6-methylphenyl)-5-(N-((cis)-3-hydroxycyclobutyl)sulfamoyl)-2-methoxybenzamide]
0.2 | COc1ccc(S(=O)(=O)N[C@@H](C)C(N)=O)cc1C(=O)Nc1ccccc1Cl [Compound 59a]
0.2 | COc1ccc(S(=O)(=O)NC2CC[C@H](O)C2)cc1C(=O)Nc1ccccc1Cl (stereo partly shown) [Compound 57a]
1.2 | COc1ccc(S(=O)(=O)NC2CCN(C)C2=O)cc1C(=O)Nc1ccccc1Cl (single isomer, unassigned) [Compound 54b, (R*)—N-(2-Chlorophenyl)-2-methoxy-5-(N-(1-methyl-2-oxopyrrolidin-3-yl)sulfamoyl)benzamide]
